Data taken from patent publication US8772348B2, “Materials and methods for pest control” (priority 2009, dated 2014).
Like-named read-outs stand apart in the source and are kept apart here.

Columns and labels:
[1] = tested on: Musca domestica; details: formulation on plywood panels, 3.33 mg cm^−2 (footnote 1.67), 2 h exposure, mortality 24 h after
Description: Briefly, after Musca domestica is exposed to formulations at concentration of 3.33 mg cm^−2 for 2 hours, each set is transferred into a separate glass jar, and held for another 24 hours.
(§1) Plywood panels (225 cm^2) were treated with chemicals at a rate of 1.67 mg cm^−2. Panels were treated on day 0 and was held until exposure on post-treatment day. Mosquitoes were exposed to chemicals for 2 h, and mortality rate was assessed 24 h after initial exposure. Control contained formulation ingredients without semiochemicals.

[2] = tested on: Susceptible Musca domestica; assay: Glass jar contact bioassay, susceptible (laboratory) house flies
Description: Briefly, adult house flies, Musca domestica, are obtained from strains that have been reared in the laboratory of the Entomology and Nematology Department, University of Florida. […] The positive control is exposed to serial dilutions of permethrin. The negative control is not exposed to any chemical compound. The mortality rate is measured after 2-hour, 4-hour, and 24-hour periods. Ataxic flies are considered dead.
The ability of house flies to recover from insecticidal exposure is also investigated. After a 2-hour exposure, each set of flies is transferred into a separate glass jar. The mortality rate is measured at two time intervals: first, immediately at the transfer (2 hours after the initial exposure), and second, 22 hours after the transfer (24 hours after the initial exposure).
The mortality rate is analyzed using the PROBIT model. The data is adjusted based on the mortality rate in the control set using the Abbott's transformation, and the percent mortality is further analyzed based on ANOVA measurement. The experiment is repeated at least three times. The data is discarded if the mortality rate in the control set exceeds 10%. The LC50 and LC90 values are further determined using the SAS (Cary, N.C., USA) statistical software. For each chemical compound, at least 1280 flies are examined.

[3] = tested on: Aedes aegypti; details: formulation on plywood panels at 1.67 mg cm^−2, 2 h exposure, mortality 24 h after initial exposure
Description: Briefly, after mosquitoes are assayed on unpainted plywood panel boards with formulation at a concentration of 1.67 mg cm^−2 for 2 hours, they are transferred into a separate glass jar, and held for another 24 hours. The mortality rate is measured daily for a continuous 4 days (Day 1 starts at 24 hours after the transfer), as is determined using the same procedures as are illustrated in Example 2.
as §1

[4] = tested on: Aedes aegypti; details: On camouflage military fabric
Description: (§2) The mortality rate is measured after a 2-hour, 4-hour and 24-hour exposure period. Ataxic mosquitoes are considered dead.
(§3) The ability of Ae. aegypti to recover from insecticidal exposure is also investigated. After a 2-hour exposure, each set of Ae. aegypti is transferred into a separate jar. The mortality rate is measured at two time intervals: first, immediately at the transfer (2 hours after the initial exposure), and second, 22 hours after the transfer (24 hours after the initial exposure).
The mortality rate and the LC values are determined using the same procedures as is illustrated in Example 2.

[5] = tested on: Field-collected Musca domestica
Description: Briefly, one Musca domestica strain is collected from the University of Florida dairy unit in Alachua County, Florida, U.S.A. (“the Alachua strain”). The other Musca domestica strain is collected from a dairy farm in Gilchrist County, Florida, U.S.A. (“the Gilchrist strain”). Both strains are colonized adults, and are subsequently reared at 27° C. in the laboratory of the Entomology and Nematology Department, University of Florida.
The positive control is exposed to serial dilutions of permethrin. The negative control is not exposed to any chemical compound. 1 mL of insecticide was dissolved in acetone (concentrations between 0.5 and 20 mg mL^−1) in a 60 mL glass jar having a 67.86 cm^2 inside surface area (Wheaton, Millville, N.J.). Jars were allowed to dry for 1 h prior to fly introduction. Flies were held in jars for 2, 4 and 24 h, and fly mortality rate was scored at that time. Sugar water (10%) was provided in all assays, unless stated otherwise. The mortality rate is measured after a 2-hour, 4-hour, and 24-hour period. Ataxic flies are considered dead. The mortality rate and the LC values are determined using the same procedures as is illustrated in Example 2.

[6] = tested on: Aedes aegypti; details: On filter paper
Description: Briefly, yellow fever mosquito, Ae. aegypti were obtained from strains that have been cultured in the laboratory of the Entomology and Nematology Department, University of Florida.
as §2, §3

[7] = tested on: Stomoxys calcitrans; details: S. calcitrans; formulation on plywood panels at 1.67 mg cm^−2; mortality 24 h after
Description: (§4) Briefly, each fly strain is divided into eight sets: three sets as the experiment, four sets as the positive control, and one set as the negative control. Flies are assayed on unpainted plywood panel boards that have been previously exposed to natural summer weather conditions for at least 10 days. […] The positive control set is treated with permethrin, geranyl acetone, rosalva or citronellol. The negative control set is treated with water. The formulation is applied at a uniform rate of 7.5 ml per 225 cm^2, sufficient to cover the entire panel without dripping. Subsequently, the treated panel boards are dried for about an hour.
(§5) In each set, 20 adult flies are placed onto the panel boards. Flies are secured with wooden embroidery hoops, covered with a coarse mesh screen cloth previously sprayed with the respective formulation. After 4 hours, flies are transferred into a clean jar. The mortality rate is measured 24 hours after the transfer, and is determined using the same procedures as are illustrated in Example 2.
(§6) Plywood panels (225 cm^2) were treated with chemicals at a rate of 1.67 mgcm^−2. Panels were treated on day 0 and held until exposure on post-treatment day. Mosquitoes were exposed to chemicals for 2 h, and mortality rate was assessed 24 h after initial exposure. Control contained formulation ingredients without semiochemicals.

[8] = tested on: Musca domestica; details: M. domestica; formulation on plywood panels at 1.67 mg cm^−2; mortality 24 h after
Description: as §4, §5, §6

[9] = 2 h constant exposure, glass jar
[10] = 2 h exposure, transferred to clean jars, mortality 24 h after initial exposure
[11] = 4 h constant exposure, glass jar
[12] = 24 h constant exposure, glass jar
[13] = 2 h exposure then transferred, mortality 24 h after initial exposure
[14] = Alachua strain, 2 h constant exposure
[15] = Alachua strain, 4 h constant exposure
[16] = Alachua strain, 24 h constant exposure
[17] = Gilchrist strain, 2 h constant exposure
[18] = Gilchrist strain, 4 h constant exposure
[19] = Gilchrist strain, 24 h constant exposure

With permethrin [reference compound] the “% mortality on various days following treatment” value ([1]; day 1) was 100.00a %, the “% mortality on various days following treatment” value ([1]; day 2) was 90.50a % and the “% mortality on various days following treatment” value ([1]; day 3) was 97.50a %. For the same substance, the “% mortality on various days following treatment” value ([1]; day 5) was 97.50a %, the “% mortality on various days following treatment” value ([1]; day 7) was 97.50a % and the “% mortality on various days following treatment” value ([1]; day 14) was 67.00a %. It also gave an LC50 [2, 9] of 0.18 μg cm^−2, an LC90 [2, 9] of 1.20 μg cm^−2 and an LC50 [2, 10] of 0.58 μg cm^−2. The LC90 [2, 10] was 3.56 μg cm^−2, the “decline in toxicity after a 24-hour holding period subsequent to an initial 2-hour exposure” value ([2]; 2 h transferred vs 2 h constant) was roughly 3 fold and the LC50 [2, 11] was 0.10 μg cm^−2. It also gave an LC90 [2, 11] of 0.95 μg cm^−2, an LC50 [2, 12] of 0.03 μg cm^−2 and an LC90 [2, 12] of 0.41 μg cm^−2. For the same substance, the “% mortality on various days following treatment” value ([3]; day 1) was 100.00a %, the “% mortality on various days following treatment” value ([3]; day 2) was 99.00a % and the “% mortality on various days following treatment” value ([3]; day 3) was 98.0a %. The “% mortality on various days following treatment” value ([3]; day 4) was 96.50a %, the LC50 ([4]; 2 h constant exposure) was 0.012 μg cm^−2 and the LC50 [4, 13] was 0.45 μg cm^−2. It also gave an LC50 ([4]; 4 h constant exposure) of 0.0009 μg cm^−2, an LC50 ([4]; 24 hr constant exposure) of 0.00031 μg cm^−2 and an LC50 [5, 14] of 4.61 μg cm^−2. The LC90 [5, 14] was 14.86 μg cm^−2, the LC50 [5, 15] was 4.10 μg cm^−2 and the LC90 [5, 15] was 15.85 μg cm^−2. For the same substance, the LC50 [5, 16] was 0.99 μg cm^−2, the LC90 [5, 16] was 3.78 μg cm^−2 and the LC50 [5, 17] was 0.41 μg cm^−2. For the same substance, the LC90 [5, 17] was 1.82 μg cm^−2, the LC50 [5, 18] was 0.39 μg cm^−2 and the LC90 [5, 18] was 1.51 μg cm^−2. It also gave an LC50 [5, 19] of 0.16 μg cm^−2, an LC90 [5, 19] of 0.85 μg cm^−2 and an LC50 ([6]; 2 h constant exposure) of 0.02 μg cm^−2. It also gave an LC50 [6, 13] of 0.04 μg cm^−2, an LC50 ([6]; 4 h constant exposure) of 0.0018 μg cm^−2 and an LC50 ([6]; 24 hr constant exposure) of 0.00045 μg cm^−2. The “% mortality” value [7] was 100.00a % and the “% mortality” value [8] was 88.40a %.
